Among the data in patent US8017612B2, “Piperazine compound and use thereof as a HCV polymerase inhibitor” (priority 2006, dated 2011) are IC50 values, retold here.

Bounds are passed on as bounds.

The target in assay [1] is T1, HCV polymerase (NS5B) type 1b (Hepatitis C virus genotype 1b, UniProt P26663).
T1 construct: a region encoding NS5B (J Virol 1991 March, 65(3), 1105-13, 544 amino acids after deletion of 47 amino acids on the C-terminal); 6xHis (C); made in house; host or cells: Escherichia coli
Description: Assay of enzyme (HCV polymerase) inhibitory activity, type 1b enzyme. The format is biochemical, HCV BK strain (type 1b). The following applies: HCV polymerase inhibitory activity (IC50), 1b, type 1b enzyme 0.5 μg/ml, 25° C., 60 min. Summed up:
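Polymerase activity was followed as radiolabelled UTP incorporation by E. coli-expressed, His-tagged NS5B of HCV type 1b lacking its last 47 residues. Conditions: 2 μM UTP, 50 μM other NTPs, Mg2+ buffer at pH 7.5, 25 °C for 60 min. Inhibition relative to compound-free reactions gave IC50.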

For assay [2], the target named is T2, HCV polymerase (NS5B) type 1a (Hepatitis C virus genotype 1a, UniProt P26664).
T2 construct: made in house; host or cells: Escherichia coli (by the 'similar method' of the 1b enzyme)
In words: Assay of enzyme (HCV polymerase) inhibitory activity, type 1a enzyme. The format is biochemical, HCV type 1a (cloned from the blood of patients). The following applies: HCV polymerase inhibitory activity (IC50), 1a, type 1a enzyme 1.5 μg/ml, 25° C., 60 min. The procedure, abridged: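 IC50 values derive from radioactivity of newly synthesized RNA with versus without test compound. The enzyme was C-terminally truncated type 1a NS5B, 1.5 μg/ml, run 60 min at 25° C with 3H-UTP-labelled nucleotides.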

Usually IC50 stands for the concentration that inhibits the measured activity by half. Low readings indicate greater potency in that assay, high ones weaker potency in that assay. On to `CC(=O)N1CCN(S(=O)(=O)c2ccc(C3CC3)cc2)[C@@H](C(=O)NCc2ccc(C(C)C)cc2)C1` [Example 400, (R)-4-acetyl-1-(4-cyclopropyl-benzenesulfonyl)-piperazine-2-carboxylic acid 4-isopropyl-benzylamide], for which the IC50 in assay [1] and in assay [2] was < 100 nM each time.

On to `Cc1nc(N2CCN(S(=O)(=O)c3ccc(OC(F)(F)F)cc3)[C@@H](C(=O)NCc3ccccc3)C2)sc1C(=O)O` [Example 401, 2-[(R)-3-benzylcarbamoyl-4-(4-trifluoromethoxy-benzenesulfonyl)-piperazin-1-yl]-4-methyl-thiazole-5-carboxylic acid], for which the IC50 in assay [1] is 100 to 1000 nM; in assay [2], > 1000 nM.

Consider `CC(=O)N1CCN(S(=O)(=O)c2ccc(C(C)C)cc2)[C@@H](C(=O)NCCN2CCCCC2)C1` [Example 402, (R)-4-acetyl-1-(4-isopropyl-benzenesulfonyl)-piperazine-2-carboxylic acid (2-piperidin-1-yl-ethyl)-amide], for which the IC50 in assay [1] and in assay [2] was > 1000 nM throughout.

Turning to `CC(=O)N1CCN(S(=O)(=O)c2ccc(C(C)C)cc2)[C@@H](C(=O)NCCN2CCOCC2)C1` [Example 403, (R)-4-acetyl-1-(4-isopropyl-benzenesulfonyl)-piperazine-2-carboxylic acid (2-morpholin-4-yl-ethyl)-amide], the IC50 in assay [1] and in assay [2] was > 1000 nM each time.

On to `CC(=O)N1CCN(S(=O)(=O)c2ccc(C(C)C)cc2)[C@@H](C(=O)NCCCN2CCOCC2)C1` [Example 404, (R)-4-acetyl-1-(4-isopropyl-benzenesulfonyl)-piperazine-2-carboxylic acid (3-morpholin-4-yl-propyl)-amide], for which the half-maximal inhibitory concentration (IC50) in assay [1] and in assay [2] was > 1000 nM in each case.

As for `CC(=O)N1CCN(S(=O)(=O)c2ccc(C(C)C)cc2)[C@@H](C(=O)NCCCN2CCCC2)C1` [Example 405, (R)-4-acetyl-1-(4-isopropyl-benzenesulfonyl)-piperazine-2-carboxylic acid (3-pyrrolidin-1-yl-propyl)-amide], the IC50 in assay [1] and in assay [2] was > 1000 nM in each case.

For `CCCc1ccc(CNC(=O)[C@H]2CN(c3nc(C)c(C(N)=O)s3)CCN2S(=O)(=O)c2ccc(OC(F)(F)F)cc2)cc1` [Example 406, (R)-4-(5-carbamoyl-4-methyl-thiazol-2-yl)-1-(4-trifluoromethoxy-benzenesulfonyl)-piperazine-2-carboxylic acid 4-propyl-benzylamide], the IC50 in assay [1] and in assay [2] was < 100 nM in each case.

Take `CN(C)c1ccc(CNC(=O)[C@H]2CN(c3cnc(C(=O)O)cn3)CCN2S(=O)(=O)c2ccc(OC(F)(F)F)cc2)cn1` [Example 407, (R)-3-[(6-dimethylamino-pyridin-3-ylmethyl)-carbamoyl]-4-(4-trifluoromethoxy-benzenesulfonyl)-3,4,5,6-tetrahydro-2H-[1,2′]bipyrazinyl-5′-carboxylic acid]: the IC50 in assay [1] was < 100 nM; in assay [2], 100 to 1000 nM.

For the compound `CC(C)c1ccc(CNC(=O)[C@H]2CN(c3cnc(C(=O)O)cn3)CCN2S(=O)(=O)c2ccc(OC(F)(F)F)cc2)cn1` [Example 408, (R)-3-[(6-isopropyl-pyridin-3-ylmethyl)-carbamoyl]-4-(4-trifluoromethoxy-benzenesulfonyl)-3,4,5,6-tetrahydro-2H-[1,2′]bipyrazinyl-5′-carboxylic acid], the IC50 in assay [1] and in assay [2] was < 100 nM in each case.

Turning to `O=C(NCc1ccc(OC(F)(F)F)cc1)[C@H]1CN(C(=O)Cc2ccncc2)CCN1S(=O)(=O)c1ccc(OC(F)(F)F)cc1` [Example 409, (R)-4-(2-pyridin-4-yl-acetyl)-1-(4-trifluoromethoxy-benzenesulfonyl)-piperazine-2-carboxylic acid 4-trifluoromethoxy-benzylamide], the IC50 in assay [1] and in assay [2] was 100 to 1000 nM in each case.

Turning to `CN(C)c1ccc(CNC(=O)[C@H]2CN(C(=O)Cc3ccncc3)CCN2S(=O)(=O)c2ccc(OC(F)(F)F)cc2)cc1` [Example 410, (R)-4-(2-pyridin-4-yl-acetyl)-1-(4-trifluoromethoxy-benzenesulfonyl)-piperazine-2-carboxylic acid 4-dimethylamino-benzylamide], the IC50 in assay [1] is 100 to 1000 nM; in assay [2], < 100 nM.

With `CCCc1ccc(CNC(=O)[C@H]2CN(C(=O)Cc3ccncc3)CCN2S(=O)(=O)c2ccc(OC(F)(F)F)cc2)cc1` [Example 411, (R)-4-(2-pyridin-4-yl-acetyl)-1-(4-trifluoromethoxy-benzenesulfonyl)-piperazine-2-carboxylic acid 4-propyl-benzylamide], the IC50 in assay [1] and in assay [2] was < 100 nM each time.

On to `O=C(NCc1ccc(C2CC2)cc1)[C@H]1CN(C(=O)Cc2ccncc2)CCN1S(=O)(=O)c1ccc(OC(F)(F)F)cc1` [Example 412, (R)-4-(2-pyridin-4-yl-acetyl)-1-(4-trifluoromethoxy-benzenesulfonyl)-piperazine-2-carboxylic acid 4-cyclopropyl-benzylamide], for which the IC50 was 100 to 1000 nM in assay [1] and < 100 nM in assay [2].

Turning to `CCCc1ccc(CNC(=O)[C@H]2CN(c3ccc(C(=O)O)cc3)CCN2S(=O)(=O)c2ccc(OC(F)(F)F)cc2)cc1` [Example 413, 4-[(R)-3-(4-propyl-benzylcarbamoyl)-4-(4-trifluoromethoxy-benzenesulfonyl)-piperazin-1-yl]-benzoic acid], the IC50 in assay [1] was < 100 nM; in assay [2], 100 to 1000 nM.

Turning to `CCCc1ccc(CNC(=O)[C@H]2CN(c3nc(C)c(C(=O)O)s3)CCN2S(=O)(=O)c2ccc(CC)cc2)cc1` [Example 414, 2-[(R)-4-(4-ethyl-benzenesulfonyl)-3-(4-propyl-benzylcarbamoyl)-piperazin-1-yl]-4-methyl-thiazole-5-carboxylic acid], the concentration for half-maximal inhibition (IC50) in assay [1] and in assay [2] was < 100 nM in each case.

`CCCc1ccc(CNC(=O)[C@H]2CN(c3cnc(C(=O)O)cn3)CCN2S(=O)(=O)c2ccc(CC)cc2)cc1` [Example 415, (R)-4-(4-ethyl-benzenesulfonyl)-3-(4-propyl-benzylcarbamoyl)-3,4,5,6-tetrahydro-2H-[1,2′]bipyrazinyl-5′-carboxylic acid]: the IC50 in assay [1] and in assay [2] was < 100 nM each time.

For the compound `Cc1nc(N2CCN(S(=O)(=O)c3ccc(OC(F)(F)F)cc3)[C@@H](C(=O)NCc3ccc(N4CCCC4)cc3)C2)sc1C(=O)O` [Example 416, 4-methyl-2-[(R)-3-(4-pyrrolidin-1-yl-benzylcarbamoyl)-4-(4-trifluoromethoxy-benzenesulfonyl)-piperazin-1-yl]-thiazole-5-carboxylic acid], the IC50 in assay [1] is < 100 nM; in assay [2], 100 to 1000 nM.

For `CCCc1ccc(CNC(=O)[C@H]2CN(c3ccc(C(=O)O)nn3)CCN2S(=O)(=O)c2ccc(OC(F)(F)F)cc2)cc1` [Example 417, 6-[(R)-3-(4-propyl-benzylcarbamoyl)-4-(4-trifluoromethoxy-benzenesulfonyl)-piperazin-1-yl]-pyridazine-3-carboxylic acid], the half-inhibitory concentration (IC50) in assay [1] and in assay [2] was < 100 nM throughout.

`Cc1nc(N2CCN(S(=O)(=O)c3ccc(OC(F)(F)F)cc3)[C@@H](C(=O)NCCc3ccccc3)C2)sc1C(=O)O` [Example 418, 4-methyl-2-[(R)-3-phenethylcarbamoyl-4-(4-trifluoromethoxy-benzenesulfonyl)-piperazin-1-yl]-thiazole-5-carboxylic acid]: the IC50 in assay [1] and in assay [2] was > 1000 nM each time.
